Source: PubChem BioAssay AID248 (DTP/NCI, 2004)
Values joined by “and” are separate entries in the source; they are usually repeats but may differ in a detail not shown here. Identical values can stand only once. Inconclusive results and toxic doses are left out. Cut-off read from the data, not from the text of the source: active = T/C of 150% or more; inactive = T/C below 125%.

Test system: L1210 leukemia ip in BDF1 mice, survival T/C
Test: NCI In Vivo Anticancer Drug Screen. Data for tumor model L1210 Leukemia (intraperitoneal) in B6D2F1 (BDF1) mice
Details: endpoint: mean survival time, higher = longer survival
Outline: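 Value reflects the ratio of survival in compound-treated mice to survival in vehicle-treated controls, with both groups carrying the same transplanted tumor.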

[1] = dose: 100.0 mg/kg/injection, schedule: Q01DX009 (ip), vehicle: Klucel (hydroxypropylcellulose) (HPC)
[2] = dose: 100.0 mg/kg/injection, schedule: Q04DX003 (ip), vehicle: Klucel (hydroxypropylcellulose) (HPC)
[3] = dose: 200.0 mg/kg/injection, schedule: Q01DX009 (ip), vehicle: Klucel (hydroxypropylcellulose) (HPC)
[4] = dose: 200.0 mg/kg/injection, schedule: Q04DX003 (ip), vehicle: Klucel (hydroxypropylcellulose) (HPC)
[5] = dose: 400.0 mg/kg/injection, schedule: Q04DX003 (ip), vehicle: Klucel (hydroxypropylcellulose) (HPC)
[6] = dose: 100.0 mg/kg/injection, schedule: Q01DX009 (ip), vehicle: saline
[7] = dose: 200.0 mg/kg/injection, schedule: Q01DX009 (ip), vehicle: saline
[8] = dose: 100.0 mg/kg/injection, schedule: Q01DX001 (ip), vehicle: Klucel (hydroxypropylcellulose) (HPC)
[9] = dose: 200.0 mg/kg/injection, schedule: Q01DX001 (ip), vehicle: Klucel (hydroxypropylcellulose) (HPC)
[10] = dose: 400.0 mg/kg/injection, schedule: Q01DX001 (ip), vehicle: Klucel (hydroxypropylcellulose) (HPC)
[11] = dose: 100.0 mg/kg/injection, schedule: Q01DX001 (ip), vehicle: saline
[12] = dose: 400.0 mg/kg/injection, schedule: Q04DX002 (ip), vehicle: saline with Tween-80
[13] = dose: 200.0 mg/kg/injection, schedule: Q01DX001 (ip), vehicle: saline
[14] = dose: 400.0 mg/kg/injection, schedule: Q01DX001 (ip), vehicle: saline

Measured: T/C

c1ccc(C(=C2CC34CCCC23CC4)c2ccccc2)cc1 (configuration not stated)
inactive: dose: 37.5 mg/kg/injection, schedule: Q04DX002 (ip), vehicle: saline with Tween-80 95 % of control | dose: 75.0 mg/kg/injection, schedule: Q04DX002 (ip), vehicle: saline with Tween-80 98 % of control | dose: 150.0 mg/kg/injection, schedule: Q04DX002 (ip), vehicle: saline with Tween-80 91 % of control | dose: 300.0 mg/kg/injection, schedule: Q04DX002 (ip), vehicle: saline with Tween-80 91 % of control

CC(C)c1nc2c(=O)[nH]cnc2o1
inactive: dose: 25.0 mg/kg/injection, schedule: Q01DX005 (ip), vehicle: saline 105 % of control | dose: 50.0 mg/kg/injection, schedule: Q01DX005 (ip), vehicle: saline 107 % of control | dose: 100.0 mg/kg/injection, schedule: Q01DX005 (ip), vehicle: saline 95 % of control and 102 % of control | dose: 200.0 mg/kg/injection, schedule: Q01DX005 (ip), vehicle: saline 100 % of control

CCN(CC)C(=O)C(Br)C(Br)C(=O)N(CC)CC (configuration not stated)
inactive: dose: 100.0 mg/kg/injection, schedule: Q04DX003 (ip), vehicle: acetone 100 % of control | dose: 200.0 mg/kg/injection, schedule: Q04DX003 (ip), vehicle: acetone 100 % of control | dose: 400.0 mg/kg/injection, schedule: Q04DX003 (ip), vehicle: acetone 92 % of control

CCOC(=O)c1c(O)csc1C
inactive: [1] 93 % of control | [2] 98 % of control | [3] 90 % of control | [4] 101 % of control | dose: 400.0 mg/kg/injection, schedule: Q01DX009 (ip), vehicle: Klucel (hydroxypropylcellulose) (HPC) 109 % of control | [5] 97 % of control

C#CC(C)(O)c1ccccc1 (configuration not stated)
inactive: [1] 98 % of control | [3] 98 % of control

CCCn1nnc2ccccc2c1=Nc1ccccc1Cl
inactive: dose: 50.0 mg/kg/injection, schedule: Q01DX009 (ip), vehicle: saline 97 % of control | [6] 88 % of control | dose: 100.0 mg/kg/injection, schedule: Q04DX003 (ip), vehicle: saline 110 % of control | [7] 97 % of control | dose: 200.0 mg/kg/injection, schedule: Q04DX003 (ip), vehicle: saline 106 % of control | dose: 400.0 mg/kg/injection, schedule: Q04DX003 (ip), vehicle: saline 100 % of control

Cc1ccc(-n2c(=O)c(N=Nc3ccc(Cl)cc3)c(O)n(-c3ccccc3C)c2=S)cc1
inactive: [8] 97 % of control | [9] 87 % of control | [10] 92 % of control

C[N+](C)(C)C(=O)c1ccccc1
inactive: dose: 50.0 mg/kg/injection, schedule: Q01DX001 (ip), vehicle: saline 104 % of control | [11] 101 % of control

N=c1ccc2cc3ccc4ccccc4c3n(O)c-2c1
inactive: dose: 100.0 mg/kg/injection, schedule: Q01DX001 (ip), vehicle: saline with Tween-80 113 % of control | dose: 200.0 mg/kg/injection, schedule: Q01DX001 (ip), vehicle: saline with Tween-80 95 % of control | dose: 400.0 mg/kg/injection, schedule: Q01DX001 (ip), vehicle: saline with Tween-80 113 % of control

O=C1c2cccc(S(=O)(=O)O)c2C(=O)c2cccc([N+](=O)[O-])c21
inactive: [2] 98 % of control | [4] 91 % of control | [5] 94 % of control

CCCCCC#CC(O)(C(=O)OC)c1ccccc1 (configuration not stated)
inactive: dose: 100.0 mg/kg/injection, schedule: Q01DX001 (ip), vehicle: other 107 % of control | dose: 200.0 mg/kg/injection, schedule: Q01DX001 (ip), vehicle: other 107 % of control | dose: 400.0 mg/kg/injection, schedule: Q01DX001 (ip), vehicle: other 100 % of control

CCCCCC/C=C/C(=O)OCC
inactive: dose: 100.0 mg/kg/injection, schedule: Q04DX003 (ip), vehicle: saline with Tween-80 96 % of control | dose: 200.0 mg/kg/injection, schedule: Q04DX003 (ip), vehicle: saline with Tween-80 101 % of control | dose: 400.0 mg/kg/injection, schedule: Q04DX003 (ip), vehicle: saline with Tween-80 101 % of control

O=C1O/C(=C/Br)C=C1Br
inactive: dose: 3.12 mg/kg/injection, schedule: Q04DX003 (ip), vehicle: saline with Tween-80 95 % of control | dose: 6.25 mg/kg/injection, schedule: Q04DX003 (ip), vehicle: saline with Tween-80 92 % of control | dose: 12.5 mg/kg/injection, schedule: Q04DX003 (ip), vehicle: saline with Tween-80 92 % of control | dose: 12.5 mg/kg/injection, schedule: Q04DX003 (ip), vehicle: saline 100 % of control | dose: 25.0 mg/kg/injection, schedule: Q04DX003 (ip), vehicle: saline 97 % of control

O=C(O)CNCCN1CC(=O)NC1=S
inactive: dose: 100.0 mg/kg/injection, schedule: Q04DX002 (ip), vehicle: saline with Tween-80 107 % of control | dose: 200.0 mg/kg/injection, schedule: Q04DX002 (ip), vehicle: saline with Tween-80 92 % of control | [12] 90 % of control

CC(=O)NC1C(Nc2ccc(S(=O)(=O)Nc3nccc(C)n3)cc2)OC(CO)C(O)C1O (configuration not stated)
inactive: dose: 250.0 mg/kg/injection, schedule: Q01DX Z (ip), vehicle: methylcellulose (MC) 94 % of control | dose: 375.0 mg/kg/injection, schedule: Q01DX Z (ip), vehicle: methylcellulose (MC) 93 % of control | dose: 500.0 mg/kg/injection, schedule: Q01DX Z (ip), vehicle: methylcellulose (MC) 102 % of control

O=P(N=P(c1ccccc1)(c1ccccc1)c1ccccc1)(c1ccccc1)c1ccccc1
inactive: [11] 97 % of control | [13] 97 % of control | [14] 97 % of control

CN(C)c1ccc(C(=O)CCCN2CCC(O)(c3ccc(Cl)cc3)CC2)cc1
inactive: [8] 95 % of control | [9] 94 % of control | [10] 90 % of control

COC(=O)c1ccc(Cl)cc1[N+](=O)[O-]
inactive: [6] 101 % of control | [7] 100 % of control | dose: 400.0 mg/kg/injection, schedule: Q01DX009 (ip), vehicle: saline 100 % of control

Nc1cc2ccc(O)cc2c2ccccc12
inactive: dose: 25.6 mg/kg/injection, schedule: Q04DX002 (ip), vehicle: saline with Tween-80 109 % of control | dose: 64.0 mg/kg/injection, schedule: Q04DX002 (ip), vehicle: saline with Tween-80 91 % of control | dose: 160.0 mg/kg/injection, schedule: Q04DX002 (ip), vehicle: saline with Tween-80 94 % of control | [12] 102 % of control

COc1cc(C(=O)O/N=C(\N)CCl)cc(OC)c1OC
inactive: dose: 6.25 mg/kg/injection, schedule: Q04DX002 (ip), vehicle: Klucel (hydroxypropylcellulose) (HPC) 92 % of control | dose: 12.5 mg/kg/injection, schedule: Q04DX002 (ip), vehicle: Klucel (hydroxypropylcellulose) (HPC) 88 % of control | dose: 25.0 mg/kg/injection, schedule: Q04DX002 (ip), vehicle: Klucel (hydroxypropylcellulose) (HPC) 88 % of control

O=[N+]([O-])c1ccc(S(=O)(=O)/N=C2\CCS(=O)(=O)c3ccccc32)cc1
inactive: [11] 92 % of control | [13] 92 % of control | [14] 93 % of control
